Data published in US7994167B2, “Pentafluorosulphanyl-substituted compound and its use for producing medicaments” (Gruenenthal GmbH, priority 2005, dated 2011).
Like-named read-outs stand apart in the source and are kept apart here.

Key:
[1] = biological target: T1, vanilloid receptor 1 (VR1/TRPV1) of the rat (Rattus norvegicus, UniProt O35433); test: FLIPR Ca2+ influx assay in rat dorsal root ganglia cells (functional investigation I); type: cell-based; settings: for IC50: VR1 rat; for VR1 (rat) (% blocking compared with 1 μM CP) / VR1 (rat) (% stimulation compared with 1 μM CP): rat DRG cells, test compound 1 μM; for VR1 (rat) (% blocking compared with 1 μM CP): 5 min incubation, then 100 nM capsaicin; for VR1 (rat) (% stimulation compared with 1 μM CP): Ca2+ signal relative to 1 μM capsaicin (CP)
T1 construct: The spinal column was removed from decapitated rats; from tissue; host or cells: primary rat dorsal root ganglion (DRG) cells
T1 sequence (O35433 whole entry): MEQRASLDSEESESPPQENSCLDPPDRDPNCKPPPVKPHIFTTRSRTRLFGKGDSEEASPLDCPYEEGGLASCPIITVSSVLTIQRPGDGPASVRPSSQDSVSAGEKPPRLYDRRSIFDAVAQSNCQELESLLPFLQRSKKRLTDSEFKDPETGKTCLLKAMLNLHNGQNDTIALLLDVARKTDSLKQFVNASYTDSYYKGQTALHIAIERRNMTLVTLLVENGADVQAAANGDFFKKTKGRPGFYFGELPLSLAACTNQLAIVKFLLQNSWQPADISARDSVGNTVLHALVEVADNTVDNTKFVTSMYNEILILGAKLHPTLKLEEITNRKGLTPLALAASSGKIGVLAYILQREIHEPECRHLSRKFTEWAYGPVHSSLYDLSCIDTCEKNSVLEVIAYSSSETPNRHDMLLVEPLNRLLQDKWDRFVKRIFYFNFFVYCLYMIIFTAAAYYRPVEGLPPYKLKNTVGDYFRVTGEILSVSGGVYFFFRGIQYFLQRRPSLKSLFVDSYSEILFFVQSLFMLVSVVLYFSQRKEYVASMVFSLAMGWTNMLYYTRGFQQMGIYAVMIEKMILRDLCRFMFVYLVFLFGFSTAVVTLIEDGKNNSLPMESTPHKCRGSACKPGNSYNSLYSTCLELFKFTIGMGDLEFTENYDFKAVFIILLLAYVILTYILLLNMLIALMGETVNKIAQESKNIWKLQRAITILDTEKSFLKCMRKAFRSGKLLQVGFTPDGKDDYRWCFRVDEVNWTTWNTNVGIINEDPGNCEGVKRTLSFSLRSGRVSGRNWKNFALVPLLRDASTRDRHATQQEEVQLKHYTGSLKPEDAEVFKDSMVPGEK
Description: I. Functional Investigation Using the Vanilloid Receptor 1 (VR1/TRPV1 Receptor)
The agonistic and antagonistic effects of the substances under investigation on the vanilloid receptor 1 (VR1/TRPV1) of the rat can be determined using the following assay. According to this assay, the Ca^2+ influx through the receptor channel is quantified with the aid of a Ca^2+-sensitive dye (of the type Fluo-4, from Molecular Probes Europe BV, Leiden, Netherlands) in a Fluorescent Imaging Plate Reader (FLIPR, from Molecular Devices, Sunnyvale, USA).
Complete medium: 10% by volume FCS (foetal calf serum, from Gibco Invitrogen GmbH, Karlsruhe, Germany, heat deactivated);
2 mM L-glutamine (from Sigma, Munich, Germany);
1% by weight of AA solution (antibiotic/antimycotic solution, from PAA, Pasching, Austria) and 25 ng/ml Medium NGF (2.5 S, from Gibco Invitrogen GmbH, Karlsruhe, Germany)
Cell culture plate: poly-D-lysine-coated, black 96-well plates with clear bases (96 well black/clear plate, from BD Biosciences, Heidelberg, Germany) were also coated with laminin (from Gibco Invitrogen GmbH, Karlsruhe, Germany), in that the laminin was diluted to a concentration of 100 μg/ml with PBS (Ca—Mg-free PBS, from Gibco Invitrogen GmbH, Karlsruhe, Germany). Aliquots with a concentration of 100 μg/ml of laminin were taken and stored at −20° C. The aliquots were diluted with PBS in a ratio of 1:10 to 10 μg/ml laminin and 50 μl of the solution was pipetted into each well in the cell culture plate. The cell culture plates were then incubated for at least two hours at 37° C., the residual solution drawn off and the wells washed twice with PBS. The coated cell culture plates were stored with the residual PBS, which was removed immediately before offering up the cells.
Preparation of the Cells:
The spinal column was removed from decapitated rats and laid directly into cold (placed in an ice bath) HBSS buffer (Hank's buffered saline solution, from Gibco Invitrogen GmbH, Karlsruhe, Germany) to which was added 1% by volume of an AA-solution (antibiotic/antimycotic solution, from PAA, Pasching, Austria). The spinal column was bisected longitudinally and removed, together with the fasciae, from the vertebral canal. The dorsal root ganglia (DRGs) were then removed and again placed in cold HBSS buffer to which was added 1% by volume of an AA-solution, and stored. The DRGs, completely freed from residual blood and spinal nerves were transferred, in each case, into 500 μl cold collagenase type 2 (from PAA, Pasching, Austria) and incubated for 35 minutes at 37° C. Following addition of 2.5% by volume of trypsin (from PAA, Pasching, Austria), the material was incubated for a further 10 minutes at 37° C. Following complete incubation, the enzyme solution was carefully pipetted off and 500 μl complete medium was added to the remaining DRGs. The DRGs were suspended several times in each case, drawn by means of a syringe through No. 1, No. 12 and No. 16 cannulae and transferred to 50 ml Falcon tubes and these then filled to 15 ml with complete medium. The contents of each Falcon tube was filtered through a 70 μm Falcon filter insert and centrifuged for 10 minutes at 1200 revolutions and at room temperature. The resulting pellet was added, in each case, to 250 μl complete medium and the cell count was determined.
The number of cells in the suspension was adjusted to 3×10^5 per ml and, in each case, 150 μl of this suspension was placed in a well in the coated cell culture plate of the type described above. The plates were left in an incubation cupboard at 37° C. under 5% by volume CO2 and 95% relative humidity for two to three days. […]

[2] = biological target: vanilloid receptor 1 (VR1/TRPV1 receptor) (Homo sapiens, UniProt Q8NER1); test: Binding affinity for the vanilloid receptor 1
Sequence of vanilloid receptor 1 (VR1/TRPV1 receptor) (Q8NER1 whole entry, species assumed): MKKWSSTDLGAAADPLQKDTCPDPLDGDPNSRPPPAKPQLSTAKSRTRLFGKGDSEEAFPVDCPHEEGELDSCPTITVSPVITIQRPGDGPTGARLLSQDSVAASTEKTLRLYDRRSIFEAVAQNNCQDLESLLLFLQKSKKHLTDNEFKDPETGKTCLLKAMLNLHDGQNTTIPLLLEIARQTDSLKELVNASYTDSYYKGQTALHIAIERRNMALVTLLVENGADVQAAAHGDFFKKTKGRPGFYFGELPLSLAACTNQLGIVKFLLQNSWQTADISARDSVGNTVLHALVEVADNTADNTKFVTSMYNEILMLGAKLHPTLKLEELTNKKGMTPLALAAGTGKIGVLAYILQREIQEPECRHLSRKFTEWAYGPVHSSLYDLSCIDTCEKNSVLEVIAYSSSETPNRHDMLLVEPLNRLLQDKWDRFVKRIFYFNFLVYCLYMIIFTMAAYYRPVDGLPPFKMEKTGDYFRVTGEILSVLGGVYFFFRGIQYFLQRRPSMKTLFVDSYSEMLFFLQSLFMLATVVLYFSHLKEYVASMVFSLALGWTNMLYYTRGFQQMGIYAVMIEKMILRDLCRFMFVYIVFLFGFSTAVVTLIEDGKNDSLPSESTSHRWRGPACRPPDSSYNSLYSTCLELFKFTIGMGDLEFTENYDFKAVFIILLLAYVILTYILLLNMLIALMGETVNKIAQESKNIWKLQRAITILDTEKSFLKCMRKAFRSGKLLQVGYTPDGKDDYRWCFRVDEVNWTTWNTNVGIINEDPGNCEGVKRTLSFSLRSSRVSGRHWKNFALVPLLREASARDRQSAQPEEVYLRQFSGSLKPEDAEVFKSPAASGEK
Description: The affinity of the pentafluorosulphanyl-substituted compounds according to the invention for the vanilloid receptor 1 (VR1/TRPV1 receptor) was determined as described above.

VR1 (human) = biological target: T2, VR1 (human) (Homo sapiens, UniProt Q8NER1); test: FLIPR Ca2+ influx assay in CHO K1 cells stably transfected with the VR1 gene (functional investigation II); type: cell-based; settings: for VR1 (human) (% blocking compared with 1 μM CP) / VR1 (human) (% stimulation compared with 1 μM CP): VR1-transfected CHO K1 cells; for VR1 (human) (% blocking compared with 1 μM CP): 5 min incubation, then 100 nM capsaicin; for VR1 (human) (% stimulation compared with 1 μM CP): Ca2+ signal relative to capsaicin (CP)
T2 construct: expressed in transfected cells; host or cells: CHO K1 cells (ECACC)
T2 sequence (Q8NER1 whole entry): as the sequence (Q8NER1 whole entry, species assumed) above
Description: II. Functional Investigation Using the Vanilloid Receptor (VR1)
The agonistic or antagonistic effect of the substances to be investigated on the vanilloid receptor (VR1) can also be determined with the following assay. According to this assay, the Ca^2+ influx through the channel can be quantified with the aid of a Ca^2+ sensitive dye (of the type Fluo-4, from Molecular Probes, Europe BV, Leiden, Netherlands) in a Fluorescent Imaging Plate Reader (FLIPR, from Molecular Devices, Sunnyvale, USA).
Chinese hamster ovary cells (CHO K1-cells, from the European Collection of Cell Cultures (ECACC), UK) were stably transfected with the VR1 gene. For functional investigations, these cells were plated out on Poly-D-lysine-coated, black 96-well plates with clear bases (from BD Biosciences, Heidelberg, Germany) at a density of 25,000 cells/well. The cells were incubated over night at 37° C. and under 5% CO2 in a culture medium (Nutrient Mixture Ham's F12, 10% by volume FCS (foetal calf serum), 18 μg/ml L-proline). The following day, the cells were incubated with Fluo-4 (Fluo-4 2 μM, Pluronic F127 0.01% by volume, from Molecular Probes in HBSS (Hank's buffered saline solution), from Gibco Invitrogen GmbH, Karlsruhe, Germany) for 30 minutes at 37° C. Subsequently, the plates were washed 3 times with HBSS buffer and, following a further period of incubation for 15 minutes at room temperature, placed in the FLIPR for Ca^2+ measurement. The Ca^2+-dependent fluorescence was measured before and after the addition of the substances to be investigated (wavelength λBX=488 nm, λem=540 nm). Quantification took place by measuring the highest intensity of fluorescence (FC, fluorescence counts) over time.
The FLIPR protocol comprises 2 substance additions. […] Following 5 minutes of incubation, 100 nM capsaicin were applied and the Ca^2+ influx determined again.
Desensitising agonists and antagonists lead to a suppression of the Ca^2+ influx. % inhibition is calculated, compared with the maximum achievable inhibition with 10 μM capsaicin.

| Ki ([2]; read-out: Binding Ki) | IC50 (VR1 (human); VR1 human, read-out: IC50 (human)) | SMILES | IC50 [1] | VR1 (rat) (% blocking compared with 1 μM CP) [1] | VR1 (rat) (% stimulation compared with 1 μM CP) [1] | VR1 (human) (% blocking compared with 1 μM CP) (VR1 (human)) | VR1 (human) (% stimulation compared with 1 μM CP) (VR1 (human)) | Ki [2] | IC50 (VR1 (human)) |
| --- | --- | --- | --- | --- | --- | --- | --- | --- | --- |
| 0.084 µM | 0.8 µM | CS(=O)(=O)Nc1ccc(CNC(=S)NCc2ccc(S(F)(F)(F)(F)F)cc2)cc1F [Example 1, N-{4-[3-(4-pentafluorosulphanyl-benzyl)-thioureidomethyl]-2-fluoro-phenyl}-methanesulphonamide] | 0.36 µM | 90.27% | 0.02% | 87.67% | 0.68% |  |  |
|  |  | O=C(Nc1ccc(S(F)(F)(F)(F)F)cc1)N1CCN(c2ncccc2Cl)CC1 [Example 2, 4-(3-chloro-pyridin-2-yl)-piperazine-1-carboxy-(4-pentafluorosulphanyl-phenyl)-amide] | 0.048 µM | 101.93% | 0.63% | 105.44% | 3.72% | 0.012 µM | 0.25 µM |
| 0.094 µM |  | FS(F)(F)(F)(F)c1ccc(NC(=S)N2CCN(c3ncccc3Cl)CC2)cc1 [Example 3, 4-(3-chloro-pyridin-2-yl)-piperazine-1-thiocarboxy-(4-pentafluorosulphanyl-phenyl)-amide] |  |  |  |  |  |  |  |
